Assay results from patent publication US6815446B1, “Selective antagonists of A2B adenosine receptors” (Vanderbilt University, priority 1999, dated 2004).
Where two headings read alike, the source gives them in different places. One block for each compound: values may come before it.

How the values were obtained:
[1] = biological target: T1, A2B Receptor (Homo sapiens, UniProt P29275); conditions: background statement; cited from earlier work
T1 sequence (P29275 1-332): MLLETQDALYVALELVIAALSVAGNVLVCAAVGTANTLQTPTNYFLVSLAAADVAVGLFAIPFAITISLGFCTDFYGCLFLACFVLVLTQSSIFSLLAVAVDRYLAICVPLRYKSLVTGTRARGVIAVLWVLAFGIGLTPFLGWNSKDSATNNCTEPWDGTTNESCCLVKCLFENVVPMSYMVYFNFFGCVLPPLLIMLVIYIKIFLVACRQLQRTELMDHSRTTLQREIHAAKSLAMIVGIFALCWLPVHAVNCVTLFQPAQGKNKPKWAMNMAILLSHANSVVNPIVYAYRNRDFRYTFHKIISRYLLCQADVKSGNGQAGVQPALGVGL

[2] = biological target: T2, rat A3 (Rattus norvegicus, UniProt P28647); conditions: rat (r); [125I]APNEA, CHO cells transfected with rat A3; read-out: Antagonist potency (K1 or KB) A3 Receptor; cited from earlier work
T2 construct: expressed in transfected cells
T2 sequence (P28647 1-320): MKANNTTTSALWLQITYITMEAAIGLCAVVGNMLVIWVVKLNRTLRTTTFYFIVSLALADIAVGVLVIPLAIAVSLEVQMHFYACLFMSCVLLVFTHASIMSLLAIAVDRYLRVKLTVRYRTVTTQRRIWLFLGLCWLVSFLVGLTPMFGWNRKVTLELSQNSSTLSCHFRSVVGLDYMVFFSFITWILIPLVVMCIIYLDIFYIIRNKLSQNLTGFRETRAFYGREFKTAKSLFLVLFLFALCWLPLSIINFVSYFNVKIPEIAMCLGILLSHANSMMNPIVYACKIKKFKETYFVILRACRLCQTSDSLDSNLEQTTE

[3] = biological target: T3, human A1 (Homo sapiens, UniProt P30542); assay: Displacement of [3H]DPCPX from membranes of CHO cells transfected with human A1; assay type: binding; conditions: read-out: Antagonist potency (K1 or KB) A1 Receptor
T3 construct: expressed in transfected cells
T3 sequence (P30542 1-326): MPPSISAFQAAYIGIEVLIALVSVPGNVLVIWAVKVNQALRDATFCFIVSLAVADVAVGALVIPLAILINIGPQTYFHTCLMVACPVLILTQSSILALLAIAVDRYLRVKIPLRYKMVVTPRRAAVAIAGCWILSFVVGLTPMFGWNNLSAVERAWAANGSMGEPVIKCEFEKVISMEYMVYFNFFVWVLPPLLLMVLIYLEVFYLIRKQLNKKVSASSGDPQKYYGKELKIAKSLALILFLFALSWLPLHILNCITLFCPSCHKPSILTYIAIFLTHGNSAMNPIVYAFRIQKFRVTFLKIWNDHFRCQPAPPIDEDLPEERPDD

[4] = biological target: T1, A2B Receptor; assay: Inhibition of NECA-stimulated cAMP in HEL (human erythroleukemia) cells, Schild analysis; assay type: cell-based; design: endogenous in cells; host or cells: human erythroleukemia (HEL) cells; conditions: for Schild analysis, type of antagonism at A2B receptors: NECA cAMP dose-response curves in human erythroleukemia cells with increasing antagonist concentrations, FIG. 1; for Kb: human (h), NECA-stimulated cAMP in HEL cells, read-out: Antagonist potency (K1 or KB) A2B Receptor
Text: A Schild analysis derived from dose-response curves for accumulation of cAMP produced by NECA in human erythroleukemia cells in the absence and in the presence of increasing concentrations of the antagonists. […] The intercept at the x-axis is an estimate of the Ki of the antagonists.

[5] = biological target: T4, human A3 (Homo sapiens, UniProt P0DMS8); assay: Displacement of [3H]NECA from CHO cells transfected with human A3; assay type: binding; conditions: read-out: Antagonist potency (K1 or KB) A3 Receptor
T4 construct: expressed in transfected cells
T4 sequence (P0DMS8 1-318): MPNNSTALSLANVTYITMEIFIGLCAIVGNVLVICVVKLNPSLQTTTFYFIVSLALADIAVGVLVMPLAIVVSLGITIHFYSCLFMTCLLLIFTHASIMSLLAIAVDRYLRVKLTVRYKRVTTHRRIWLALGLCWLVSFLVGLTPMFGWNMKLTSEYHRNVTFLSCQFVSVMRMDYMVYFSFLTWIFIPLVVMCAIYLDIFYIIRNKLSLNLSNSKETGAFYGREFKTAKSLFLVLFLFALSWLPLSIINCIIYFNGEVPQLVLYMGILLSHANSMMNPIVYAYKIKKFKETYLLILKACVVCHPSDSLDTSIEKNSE

[6] = biological target: T5, A2A Receptor (Homo sapiens, UniProt P29274); assay: Inhibition of CGS 21680-stimulated cAMP in HMC-1 cells; assay type: cell-based; conditions: human (h), read-out: Antagonist potency (K1 or KB) A2A Receptor
T5 construct: endogenous in cells; host or cells: HMC-1 cells
T5 sequence (P29274 whole entry): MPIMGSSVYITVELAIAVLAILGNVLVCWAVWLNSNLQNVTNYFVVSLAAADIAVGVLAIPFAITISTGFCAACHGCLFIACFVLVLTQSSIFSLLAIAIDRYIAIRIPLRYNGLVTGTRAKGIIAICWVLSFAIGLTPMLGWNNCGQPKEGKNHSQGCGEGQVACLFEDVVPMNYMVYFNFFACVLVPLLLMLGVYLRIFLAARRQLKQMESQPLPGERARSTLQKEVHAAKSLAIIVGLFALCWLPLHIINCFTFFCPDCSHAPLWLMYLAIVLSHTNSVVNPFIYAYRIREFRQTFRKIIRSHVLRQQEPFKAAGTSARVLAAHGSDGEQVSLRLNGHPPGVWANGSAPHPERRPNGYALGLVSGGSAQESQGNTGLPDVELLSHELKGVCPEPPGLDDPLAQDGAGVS

[7] = biological target: T3, human A1; conditions: human (h); [3H]DPCPX, HEK-293 cells transfected with human A1; read-out: Antagonist potency (K1 or KB) A1 Receptor; cited from earlier work
[8] = biological target: A2A Receptor (Rattus norvegicus, UniProt P30543); conditions: read-out: Antagonist potency (K1 or KB) A2A Receptor; rat (r); CGS 21680 radioligand, rat striatal membranes; cited from earlier work
Chain of A2A Receptor (Rattus norvegicus, UniProt P30543) (P30543 whole entry): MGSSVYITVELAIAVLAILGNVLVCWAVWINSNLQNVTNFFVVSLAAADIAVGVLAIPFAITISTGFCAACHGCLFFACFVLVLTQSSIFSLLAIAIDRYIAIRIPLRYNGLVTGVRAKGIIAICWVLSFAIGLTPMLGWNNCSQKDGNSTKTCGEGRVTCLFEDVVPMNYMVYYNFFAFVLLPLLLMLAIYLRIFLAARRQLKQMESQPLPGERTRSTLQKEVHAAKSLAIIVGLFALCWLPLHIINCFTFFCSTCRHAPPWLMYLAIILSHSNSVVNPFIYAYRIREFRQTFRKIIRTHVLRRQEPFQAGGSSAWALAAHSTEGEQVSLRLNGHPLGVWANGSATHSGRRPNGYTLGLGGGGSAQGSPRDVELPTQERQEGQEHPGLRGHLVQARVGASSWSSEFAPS

[9] = biological target: T6, A1 Receptor (Rattus norvegicus, UniProt P25099); conditions: read-out: Antagonist potency (K1 or KB) A1 Receptor; rat (r); [3H]PIA, rat brain membranes; cited from earlier work
T6 sequence (P25099 1-326): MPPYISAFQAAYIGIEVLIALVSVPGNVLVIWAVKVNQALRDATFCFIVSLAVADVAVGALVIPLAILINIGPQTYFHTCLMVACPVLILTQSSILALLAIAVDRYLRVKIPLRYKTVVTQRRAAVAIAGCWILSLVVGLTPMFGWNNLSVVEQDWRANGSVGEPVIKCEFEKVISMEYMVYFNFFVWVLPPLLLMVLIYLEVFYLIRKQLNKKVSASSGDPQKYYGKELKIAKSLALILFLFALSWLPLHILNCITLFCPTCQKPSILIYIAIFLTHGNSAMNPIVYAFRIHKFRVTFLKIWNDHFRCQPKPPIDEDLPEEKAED

- Kb [3]: 31 µM
- Schild analysis, type of antagonism at A2B receptors [4]: competitive antagonism
- Potency compared with enprofylline ([4]; comparison from the potency table): much higher than that of enprofylline
- Kb [4]: 0.525 µM
- Kb [5]: 53 µM
- Kb [6]: 20 µM
Structure (SMILES): CC(C)Cn1c(=O)[nH]c(=O)c2[nH]c(N3CCCC3)nc21 [Formula (I)]

- Schild analysis, type of antagonism at A2B receptors [4]: competitive antagonism
Structure (SMILES): CCCn1c(=O)[nH]c(=O)c2nc[nH]c21 [Enprofylline]
- Kb [7]: 156 µM

- Schild analysis, type of antagonism at A2B receptors [4]: competitive antagonism
- Kb [4]: 0.14 µM
Structure (SMILES): CCCn1c(=O)c2[nH]c(-c3ccc(S(=O)(=O)O)cc3)nc2n(CCC)c1=O [DPSPX, 1,3-dipropyl-8-p-sulfophenylxanthine]
- Kb [8]: 0.79 µM
- Affinity of xanthine antagonists at A2B receptors [1]: mid to high nM range
- Kb [2]: > 100 µM
- Kb [9]: 0.14 µM

More lines, now with the values behind:

Structure (SMILES): CCNC(=O)[C@H]1O[C@@H](n2cnc3c(NCc4ccccc4)ncnc32)[C@@H](O)C1O (stereo partly shown) [N^6-benzyl NECA]
- Agonist activity or affinity at A2B receptors [1]: very low affinity

Structure (SMILES): Cn1c(=O)c2[nH]cnc2n(C)c1=O [Theophylline]
- Kb [2]: > 100 µM
